The values that follow come from ChEMBL document CHEMBL1130872, “Neuronorm is a potent and water soluble neurokinin A receptor antagonist” (Bioorg Med Chem Lett, 1998).

Each structure is given as a SMILES string.

Usually Emax stands for the size of the effect at its maximum, as opposed to the concentration needed.

For one assay, the target named is T1, Substance-K receptor (Cavia porcellus, UniProt Q64077).
T1 sequence (Q64077 whole entry): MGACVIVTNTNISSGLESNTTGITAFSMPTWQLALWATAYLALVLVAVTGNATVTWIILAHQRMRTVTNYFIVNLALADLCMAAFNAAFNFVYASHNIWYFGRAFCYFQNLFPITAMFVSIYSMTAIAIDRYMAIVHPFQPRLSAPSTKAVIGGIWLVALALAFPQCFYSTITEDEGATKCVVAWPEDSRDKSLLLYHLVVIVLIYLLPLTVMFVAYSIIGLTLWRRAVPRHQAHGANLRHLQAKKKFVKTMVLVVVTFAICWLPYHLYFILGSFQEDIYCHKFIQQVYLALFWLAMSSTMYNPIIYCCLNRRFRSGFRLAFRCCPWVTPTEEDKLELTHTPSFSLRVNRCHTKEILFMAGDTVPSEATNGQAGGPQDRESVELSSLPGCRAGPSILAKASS
The experiment in a line: Compound was evaluated for antagonistic activity towards Tachykinin receptor 2 at guinea pig trachea. The conditions noted are these: read-out: pA2 (converted). It is filed as functional, tissue-based.

The target of assay [1] is T2, Substance-K receptor (Cavia porcellus) (UniProt Q64077).
T2 sequence (whole entry): T1 sequence (Q64077 whole entry)
The experiment in a line: Antagonist Activity of compound (100 nM) at Tachykinin receptor 2 at guinea pig trachea in the presence of P-Ala8-NKA[4-IO] as agonist. It is filed as functional.

Assay [2] concerns the target T2, Substance-K receptor (Cavia porcellus). The experiment in a line: Antagonist Activity of compound (10 nM) at Tachykinin receptor 2 at guinea pig trachea in the presence of P-Ala8-NKA[4-IO] as agonist. It is filed as functional.
Assay [3] has the same target. The experiment in a line: Antagonist Activity of compound (30 nM) at Tachykinin receptor 2 at guinea pig trachea in the presence of P-Ala8-NKA[4-IO] as agonist. It is filed as functional.

As for `CSCC[C@@H]1NC(=O)C(CC(C)C)NC(=O)C2CNC(=O)C[C@H](NC1=O)C(=O)N[C@@H](Cc1c[nH]c3ccccc13)C(=O)NC(Cc1ccccc1)C(=O)N2` (single isomer, unassigned), the Kb at Substance-K receptor was 23.4 nM. In addition, the Emax in assay [1] came out at 98%; in assay [2] it was 93%; in assay [3] it was 90%.
